The test system of one data set is Alternaria brassicae. Put plainly: In vivo preventive test on Alternaria brassicae (leaf spot on radish or cabbage). Conditions: 144 h, 500 ppm of active ingredient, preventive spray on radish or cabbage, evaluated 6 days after inoculation, read-out: efficacy. As to the method:
Example: In Vivo Preventive Test on Alternaria brassicae (Leaf Spot on Radish or Cabbage)
(§1) • Solvent: 5% by volume of Dimethyl sulfoxide • 10% by volume of Acetone • Emulsifier: 1 μl of Tween® 80 per mg of active ingredient
(§2) The active ingredients were made soluble and homogenized in a mixture of Dimethyl sulfoxide/Acetone//Tween®80 and then diluted in water to the desired concentration.
The young plants of radish or cabbage were treated by spraying the active ingredient prepared as described above. Control plants were treated only with an aqueous solution of Acetone/Dimethyl sulfoxide/Tween® 80.
After 24 hours, the plants were contaminated by spraying the leaves with an aqueous suspension of Alternaria brassicae spores. The contaminated radish or cabbage plants were incubated for 6 days at 20° C. and at 100% relative humidity.
The test was evaluated 6 days after the inoculation. 0% means an efficacy which corresponds to that of the control plants while an efficacy of 100% means that no disease was observed.

Another data set has as its system Septoria tritici. The data set is described as follows: Septoria tritici in vitro cell test. The conditions noted are these: Zymoseptoria tritici, 168 h; 20 ppm of active ingredient; liquid culture, 7 days incubation; read-out: efficacy (inhibition of fungal growth). The format is cell-based. As to the method:
Example: Septoria tritici In Vitro Cell Test • Solvent: DMSO • Culture medium: 14.6 g anhydrous D-glucose (VWR), 7.1 g Bacteriological Peptone (Oxoid), • 1.4 g granulated Yeast Extract (Merck), QSP 1 liter • Inoculum: spore suspension Fungicides were solubilized in DMSO and the solution used to prepare the required range of concentrations. The final concentration of DMSO used in the assay was ≤1%. A spore suspension of Septoria tritici was prepared and diluted to the desired spore density. Fungicides were evaluated for their ability to inhibit spore germination and mycelium growth in liquid culture assay. The compounds were added in the desired concentration to the culture medium with spores. After 7 days incubation, fungi-toxicity of compounds was determined by spectrometric measurement of mycelium growth. Inhibition of fungal growth was determined by comparing the absorbance values in wells containing the fungicides with the absorbance in control wells without fungicides.

For data set [1], the system named is Colletotrichum lindemuthianum. The data set is described as follows: Colletotrichum lindemuthianum in vitro cell test. It counts as cell-based. The conditions noted are these: 144 h, 20 ppm of active ingredient, liquid culture, 6 days incubation, read-out: efficacy (inhibition of fungal growth). Here is the method: (§3) Example: Colletotrichum lindemuthianum In Vitro Cell Test • Solvent: DMSO • Culture medium: 14.6 g anhydrous D-glucose (VWR), 7.1 g Mycological Peptone (Oxoid), 1.4 g granulated Yeast Extract (Merck), QSP 1 liter • Inoculum: spores suspension Fungicides were solubilized in DMSO and the solution used to prepare the required range of concentrations. The final concentration of DMSO used in the assay was ≤1%. A spore suspension of C. lindemuthianum was prepared and diluted to the desired spore density. Fungicides were evaluated for their ability to inhibit spores germination and mycelium growth in liquid culture assay. The compounds were added in the desired concentration to the culture medium with spores. After 6 days incubation, fungi-toxicity of compounds was determined by spectrometric measurement of mycelium growth. Inhibition of fungal growth was determined by comparing the absorbance values in wells containing the fungicides with the absorbance in control wells without fungicides.

Data set [2] is described as follows: Measurement of LogP values by HPLC on reversed phase columns (EEC directive 79/831 Annex V.A8), methods [a], [b], [c]. It counts as physicochemical. The conditions noted are these: HPLC on reversed phase column, method [a]; read-out: Log P. As to the method:
Measurement of Log P values as provided herein was performed according to EEC directive 79/831 Annex V.A8 by HPLC (High Performance Liquid Chromatography) on reversed phase columns with the following methods: • ^[a]
If more than one Log P value is available within the same method, all the values are given and separated by “+”.
Lambda-max-values were determined using UV-spectra from 200 nm to 400 nm and the peak values of the chromatographic signals

The test system of the next data set is Botrytis cinerea. The data set is described as follows: In vivo preventive test on Botrytis cinerea (grey mould). The conditions noted are these: 500 ppm of active ingredient, preventive spray on gherkin or cabbage, evaluated 4 to 5 days after inoculation, read-out: efficacy. Here is the method: Example: In Vivo Preventive Test on Botrytis cinerea (Grey Mould)
as §1, §2
The young plants of gherkin or cabbage were treated by spraying the active ingredient prepared as described above. Control plants were treated only with an aqueous solution of Acetone/Dimethyl sulfoxide/Tween® 80.
After 24 hours, the plants were contaminated by spraying the leaves with an aqueous suspension of Botrytis cinerea spores. The contaminated gherkin plants were incubated for 4 to 5 days at 17° C. and at 90% relative humidity. The contaminated cabbage plants were incubated for 4 to 5 days at 20° C. and at 100% relative humidity.
The test was evaluated 4 to 5 days after the inoculation. 0% means an efficacy which corresponds to that of the control plants while an efficacy of 100% means that no disease was observed.

A further data set relates to Alternaria alternata. The data set is described as follows: Alternaria alternata in vitro cell test. The format is cell-based. Conditions: 120 h, 20 ppm of active ingredient, liquid culture, 5 days incubation, read-out: efficacy (inhibition of fungal growth). Here is the method:
as §3, with “Example: Alternaria alternata” for “Example: Colletotrichum lindemuthianum”, “of A. alternata” for “of C. lindemuthianum”, “inhibit spore” for “inhibit spores”, “After 5” for “After 6”

A further data set deals with Sphaerotheca fuliginea. The data set is described as follows: In vivo preventive test on Sphaerotheca fuliginea (powdery mildew on cucurbits). The conditions noted are these: Podosphaera fuliginea, 192 h; 500 ppm of active ingredient; preventive spray on gherkin; evaluated 8 days after inoculation; read-out: efficacy. As to the method:
Example: In Vivo Preventive Test on Sphaerotheca fuliginea (Powdery Mildew on Cucurbits)
as §1, §2
The young plants of gherkin were treated by spraying the active ingredient prepared as described above. Control plants were treated only with an aqueous solution of Acetone/Dimethyl sulfoxide/Tween® 80.
After 24 hours, the plants were contaminated by spraying the leaves with an aqueous suspension of Sphaerotheca fuliginea spores. The contaminated gherkin plants were incubated for 8 days at 20° C. and at 70-80% relative humidity.
The test was evaluated 8 days after the inoculation. 0% means an efficacy which corresponds to that of the control plants while an efficacy of 100% means that no disease was observed.

Data set [3] deals with Colletotrichum lindemuthianum. Put plainly: In vivo preventive test on Colletotrichum lindemuthianum (leaf spot on bean). The conditions noted are these: 168 h, 500 ppm of active ingredient, preventive spray on bean, evaluated 7 days after inoculation, read-out: efficacy. Here is the method:
Example: In Vivo Preventive Test on Colletotrichum lindemuthianum (Leaf Spot on Bean)
as §1, §2
The young plants of bean were treated by spraying the active ingredient prepared as described above. Control plants were treated only with an aqueous solution of Acetone/Dimethyl sulfoxide/Tween® 80.
After 24 hours, the plants were contaminated by spraying the leaves with an aqueous suspension of Colletotrichum lindemuthianum spores. The contaminated bean plants were incubated for 24 hours at 20° C. and at 100% relative humidity and then for 6 days at 20° C. and at 90% relative humidity.
The test was evaluated 7 days after the inoculation. 0% means an efficacy which corresponds to that of the control plants while an efficacy of 100% means that no disease was observed.

A further data set concerns Pyrenophora teres. The data set is described as follows: In vivo preventive test on Pyrenophora teres (net blotch on barley). The conditions noted are these: 240 h, 500 ppm of active ingredient, preventive spray on barley, evaluated 10 days after inoculation, read-out: efficacy. As to the method:
Example: In Vivo Preventive Test on Pyrenophora teres (Net Blotch on Barley)
as §1, §2
The young plants of barley were treated by spraying the active ingredient prepared as described above. Control plants were treated only with an aqueous solution of Acetone/Dimethyl sulfoxide/Tween®80.
After 24 hours, the plants were contaminated by spraying the leaves with an aqueous suspension of Pyrenophora teres spores. The contaminated barley plants were incubated for 48 hours at 20° C. and at 100% relative humidity and then for 8 days at 20° C. and at 70-80% relative humidity.
The test was evaluated 10 days after the inoculation. 0% means an efficacy which corresponds to that of the control plants while an efficacy of 100% means that no disease was observed.

The structures appear in SMILES notation.

For orientation: inhibition means the share of the control response that was lost under treatment. Consider `FC(F)(F)c1cccc(Oc2nnc(Cl)cc2C2=NCC(Cc3ccc(Cl)cc3Cl)N2)c1` (racemic) [I-007, 6-chloro-4-[rac-5-[(2,4-dichlorophenyl)methyl]-4,5-dihydro-1H-imidazol-2-yl]-3-[3-(trifluoromethyl)phenoxy]pyridazine], for which the pest or weed control at 500 ppm in the data set on Alternaria brassicae and with Botrytis cinerea was 90 to 100% in each case. Further, the inhibition at 20 ppm (in the data set on Septoria tritici; in data set [1]; in the data set with Alternaria alternata) was 90 to 100% throughout. Besides, in data set [2], the chromatographic logP is 2.39.
`Cc1cc(C2=NOCC(c3cn(C)c4ccccc34)N2)c(Oc2cccc(C(F)(F)F)c2)nn1` (racemic) [I-011, rac-5-(1-methylindol-3-yl)-3-[6-methyl-3-[3-(trifluoro-methyl)phenoxy]pyridazin-4-yl]-5,6-dihydro-4H-1,2,4-oxadiazine]: the pest or weed control at 500 ppm in the data set with Sphaerotheca fuliginea was 90 to 100%; in the data set with Alternaria brassicae it was 90 to 100%; in data set [3] it was 80 to 89%; in the data set on Pyrenophora teres, 70 to 79%; with Botrytis cinerea, 90 to 100%. Also, the inhibition at 20 ppm (in the data set on Septoria tritici; in data set [1]; with Alternaria alternata) was 90 to 100% throughout. Also, in data set [2], the chromatographic logP is 3.23.
For `Cc1ccc(CC2CC(=O)N=C(c3cc(Cl)nnc3Oc3cccc(C4CC4)c3)N2)c(C)c1` (racemic) [I-078, rac-2-[6-chloro-3-(3-cyclopropylphenoxy)pyridazin-4-yl]-6-[(2,4-dimethylphenyl)methyl]-5,6-dihydro-1H-pyrimidin-4-one], the pest or weed control at 500 ppm in the data set with Sphaerotheca fuliginea lay in the range of 80 to 89%; in the data set on Alternaria brassicae it was 90 to 100%; in data set [3] it was 90 to 100%; with Pyrenophora teres, 80 to 89%; in the data set on Botrytis cinerea it was 90 to 100%. Moreover, the inhibition at 20 ppm (in [1]; in the data set on Alternaria alternata) was 90 to 100% throughout. Moreover, in data set [2], the chromatographic logP is 4.31.
Regarding `COc1ccc(C2NC(c3cc(C)nnc3Oc3cccc(C(F)(F)F)c3)=NOC2(F)F)cc1` (racemic) [I-154, rac-6,6-difluoro-5-(4-methoxyphenyl)-3-[6-methyl-3-[3-(trifluoromethyl)phenoxy]pyridazin-4-yl]-4,5-dihydro-1,2,4-oxadiazine], the pest or weed control at 500 ppm (in the data set with Sphaerotheca fuliginea; in the data set on Alternaria brassicae; in data set [3]; with Pyrenophora teres; with Botrytis cinerea) was 90 to 100% in each case. Moreover, the inhibition at 20 ppm (in [1]; in the data set on Alternaria alternata) was 90 to 100% each time. In data set [2], the chromatographic logP turned out to be 3.6.
With `Cc1ccc(CC2CNN=C(c3cc(Cl)nnc3Oc3cccc(C(F)(F)F)c3)N2)c(C)c1` (racemic) [I-173, rac-3-[6-chloro-3-[3-(trifluoromethyl)phenoxy]pyridazin-4-yl]-5-[(2,4-dimethylphenyl)methyl]-1,4,5,6-tetrahydro-1,2,4-triazine], the pest or weed control at 500 ppm (in the data set on Sphaerotheca fuliginea; in the data set on Alternaria brassicae; in data set [3]; in the data set with Pyrenophora teres; with Botrytis cinerea) was 90 to 100% each time. For the same molecule, the inhibition at 20 ppm (in [1]; in the data set with Alternaria alternata) was 90 to 100% in each case. In data set [2], the chromatographic logP came out at 3.31.
Take `FC(F)(F)c1cccc(Oc2nnc(Cl)cc2C2=NOC[C@H](Cc3ccccc3)N2)c1` (single isomer, unassigned) [I-070]: the pest or weed control at 500 ppm (in the data set with Sphaerotheca fuliginea; with Alternaria brassicae; in [3]; in the data set on Pyrenophora teres; in the data set with Botrytis cinerea) was 90 to 100% throughout. Also, the values for the inhibition at 20 ppm (in the data set on Septoria tritici; in data set [1]; with Alternaria alternata) were 80 to 89%, 90 to 100% and 90 to 100%, respectively. Also, the chromatographic logP in data set [2] was 3.81.

(Values after patent US12501900B2, “Heterocyclyl pyridazine as fungicidal compounds” (Bayer Aktiengesellschaft, priority 2018, dated 2025).)
